In patent US11053258B2, “Pyrimidine carboxamides as GSK-3 inhibitors” (BRISTOL-MYERS SQUIBB COMPANY, priority 2016, dated 2021):
pIC50: −log10 of the molar value. “And” between values parts separate entries of the source, which are not always exact repeats. Equal entries are not always repeated. Where two headings read alike, the source gives them in different places.

How the values were obtained:
[1] = rcm bond, 70.0 °C
GSK3β = GSK3β (Homo sapiens, UniProt P49841); experiment: GSK3β kinase assay (Caliper LabChip3000, fluoresceinated peptide substrate); assay type: biochemical; details: first value of cell; 250 pM enzyme, 20 uM ATP, 20 hours room temperature; read-out: GSK3β/α (nM): GSK3β IC50
GSK3β, sequence (P49841 whole entry, species assumed): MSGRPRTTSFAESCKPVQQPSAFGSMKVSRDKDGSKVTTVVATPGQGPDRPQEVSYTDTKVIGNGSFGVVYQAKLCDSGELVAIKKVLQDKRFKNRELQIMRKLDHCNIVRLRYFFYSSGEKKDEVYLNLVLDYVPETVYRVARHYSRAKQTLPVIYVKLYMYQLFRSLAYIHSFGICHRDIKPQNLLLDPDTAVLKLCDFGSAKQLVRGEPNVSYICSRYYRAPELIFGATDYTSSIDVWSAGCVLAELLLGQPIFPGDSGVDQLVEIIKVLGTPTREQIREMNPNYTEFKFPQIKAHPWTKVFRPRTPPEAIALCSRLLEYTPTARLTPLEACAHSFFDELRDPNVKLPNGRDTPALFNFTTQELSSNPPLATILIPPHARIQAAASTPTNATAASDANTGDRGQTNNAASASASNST
Procedure: (§1) The kinase assay was performed in V-bottom 384-well plates. The final assay volume was 30 μl prepared from 15 μl additions of enzyme, substrates (fluoresceinated peptide FL-KRREILSRRP[ps]ERYR-NH2 and ATP) and test compounds in assay buffer (100 mM HEPES pH 7.4, 10 mM MgCl2, 25 mM Beta-Glycerolphosphate, 0.015% Brij35 and 0.25 mM DTT). The reaction was incubated at room temperature for 20 hours and terminated by adding 45 μl of 35 mM EDTA to each sample. The reaction mixture was analyzed on the Caliper LabChip3000 (Caliper, Hopkinton, Mass.) by electrophoretic separation of the unphosphorylated substrate and phosphorylated product. Inhibition data were calculated by comparison of the no enzyme control reactions for 100% inhibition and vehicle-only reactions for 0% inhibition. The final concentration of reagents in the assay were 250 pM GSK3α or GSK3β, 20 uM ATP, 1.5 uM FL-KRREILSRRP[ps]ERYR-NH2, and 1.6% DMSO. Dose response curves were generated to determine the concentration required to inhibit 50% of the kinase activity (IC50). Compounds were dissolved at 10 mM in dimethylsulfoxide (DMSO) and evaluated at eleven concentrations. IC50 values were derived by non-linear regression analysis.

GSK3α = GSK3α (Homo sapiens, UniProt P49840); experiment: GSK3α kinase assay (Caliper LabChip3000, fluoresceinated peptide substrate); assay type: biochemical; details: second value of cell; 250 pM enzyme, 20 uM ATP, 20 hours room temperature; read-out: GSK3β/α (nM): GSK3α IC50
GSK3α, sequence (P49840 whole entry, species assumed): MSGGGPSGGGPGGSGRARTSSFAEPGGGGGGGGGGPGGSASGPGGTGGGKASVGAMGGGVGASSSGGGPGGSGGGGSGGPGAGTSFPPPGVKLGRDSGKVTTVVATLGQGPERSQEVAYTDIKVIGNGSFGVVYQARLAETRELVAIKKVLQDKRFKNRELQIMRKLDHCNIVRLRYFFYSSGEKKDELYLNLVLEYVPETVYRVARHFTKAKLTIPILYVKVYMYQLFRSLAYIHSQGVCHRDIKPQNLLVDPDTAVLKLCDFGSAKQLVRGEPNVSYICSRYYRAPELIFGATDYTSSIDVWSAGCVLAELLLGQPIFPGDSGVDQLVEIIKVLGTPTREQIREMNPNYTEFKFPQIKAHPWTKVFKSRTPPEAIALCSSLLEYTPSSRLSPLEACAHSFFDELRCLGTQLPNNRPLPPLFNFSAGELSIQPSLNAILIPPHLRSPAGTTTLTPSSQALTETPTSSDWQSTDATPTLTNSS
Procedure: as §1

pTau = pTau assay; assay type: cell-based
[2] = from C=CCN1CCN(c2cc(F)ncc2NC(=O)c2ccnc(NCC(C)(O)CC=C)n2)CC1; rcm bond; 18-membered ring; Zhan 1B; ClCH2CH2Cl; 4.5 mM; 70.0 °C; 1.5 h

IC50 (GSK3β) [nM]	IC50 (GSK3α) [nM]	pIC50 (pTau)	Structure (SMILES)	other results
–	–	–	O=C1Nc2cnccc2OCCC=CCCCNc2nccc1n2	ring closure, isolated yield ([1]; from C=CCCCNc1nccc(C(=O)Nc2cnccc2OCCC=C)n1, 16-membered ring, Zhan 1B (30 mol%), ClCH2CH2Cl, 5.57 mM, 2.0 h): 23%
–	–	–	O=C1Nc2cnc(F)cc2N2CCN(CC=CCCCNc3nccc1n3)CC2	ring closure, isolated yield ([1]; from C=CCCCNc1nccc(C(=O)Nc2cnc(F)cc2N2CCN(CC=C)CC2)n1, 18-membered ring, Zhan 1B (20 mol%), ClCH2CH2Cl, 5.64 mM, 2.0 h): 65%
13.5	12.1	5.82	O=C1Nc2cnccc2OCCC=CCNc2nccc1n2 (mixture of isomers) [Example 5, 5-Oxa-3,11-diaza-1(4,2)-pyrimidina-4(3,4)-pyridinacycloundecaphan-8-en-2-one]	ring closure, isolated yield ([1]; from C=CCCOc1ccncc1NC(=O)c1ccnc(NCC=C)n1, 14-membered ring, Zhan 1B (50 mol%), ClCH2CH2Cl, 4.55 mM, 2.0 h): 34%
1270	2000	5.00	O=C1Nc2cnc(F)cc2N2CCN(CC=CCC(O)C3(CC3)Nc3nccc1n3)CC2 (mixture of isomers) [Example 34, (E)-6′-fluoro-8′-hydroxyspiro[cyclopropane-1,7′-3,6-diaza-5(4,2)-pyrimidina-1(1,4)-piperazina-2(4,3)-pyridinacyclododecaphanen]-10′-en-4′-one]	ring closure, isolated yield ([1]; from C=CCC(O)C1(Nc2nccc(C(=O)Nc3cnc(F)cc3N3CCN(CC=C)CC3)n2)CC1, 18-membered ring, Zhan 1B, 1.5 h): 54%
–	–	–	C[C@@H]1Nc2nccc(n2)C(=O)Nc2cnc(F)cc2N2CCN(CC=CCC1O)CC2 (stereo partly shown)	ring closure, isolated yield ([1]; from C=CCC(O)[C@H](C)Nc1nccc(C(=O)Nc2cnc(F)cc2N2CCN(CC=C)CC2)n1, 18-membered ring, Zhan 1B, ClCH2CH2Cl, 4.78 mM, 1.5 h): 29% and 26%
–	–	–	O=C1Nc2cnc(F)cc2N2CCN(CC=CCC(O)CNc3nccc1n3)CC2 (stereo not shown)	ring closure, isolated yield ([1]; from C=CCC(O)CNc1nccc(C(=O)Nc2cnc(F)cc2N2CCN(CC=C)CC2)n1, 18-membered ring, Zhan 1B (30 mol%), ClCH2CH2Cl, 5.33 mM, 4.0 h): 50%
8.1	8.4	6.20	O=C1Nc2cnccc2OCCC=CCCNc2nccc1n2 (mixture of isomers) [Example 8, 5-Oxa-3,12-diaza-1(4,2)-pyrimidina-4(3,4)-pyridinacyclododecaphan-8-en-2-one]	ring closure, isolated yield ([1]; from C=CCCNc1nccc(C(=O)Nc2cnccc2OCCC=C)n1, 15-membered ring, Zhan 1B (50 mol%), ClCH2CH2Cl, 4.3 mM, 2.0 h): 46%
–	–	–	O=C1Nc2cnc(F)cc2N2CCN(CC=CCC3(CC3)CNc3nccc1n3)CC2	ring closure, isolated yield ([1]; from C=CCN1CCN(c2cc(F)ncc2NC(=O)c2ccnc(NCC3(CC=C)CC3)n2)CC1, 18-membered ring, Zhan 1B, ClCH2CH2Cl, 4.73 mM, 2.0 h): 79%
–	–	–	O=C1Nc2cnc(F)cc2N2CCOC(C=CCCCNc3nccc1n3)C2 (stereo not shown)	ring closure, isolated yield ([1]; from C=CCCCNc1nccc(C(=O)Nc2cnc(F)cc2N2CCOC(C=C)C2)n1, 16-membered ring, Zhan 1B (40 mol%), ClCH2CH2Cl, 5.6 mM, 2.0 h): 46%
14.7	17.5	5.73	O=C1Nc2cnc(F)cc2N2CCN(CC=CCCC(O)CNc3nccc1n3)CC2 (single isomer, unassigned) [Example 28, (E)-2^6-fluoro-8-hydroxy-3,6-diaza-5(4,2)-pyrimidina-1(1,4)-piperazina-2(4,3)-pyridinacyclotridecaphan-11-en-4-one]	ring closure, isolated yield ([1]; from C=CCCC(O)CNc1nccc(C(=O)Nc2cnc(F)cc2N2CCN(CC=C)CC2)n1, 19-membered ring, Zhan 1B (30 mol%), ClCH2CH2Cl, 5.17 mM, 3.0 h): 22% and 13%
29	30.4	5.58	O=C1Nc2cnc(F)cc2N2CCN(C/C=C\CCC(O)CNc3nccc1n3)CC2 (stereo not shown) [Example 29, (Z)-2^6-fluoro-8-hydroxy-3,6-diaza-5(4,2)-pyrimidina-1(1,4)-piperazina-2(4,3)-pyridinacyclotridecaphan-11-en-4-one]	–
3.3	4.3	6.79	O=C1Nc2cnc(F)cc2N2CCN(C/C=C/CC(O)CNc3nccc1n3)CC2 (stereo not shown) [Example 26, (E)-2^6-fluoro-8-hydroxy-3,6-diaza-5(4,2)-pyrimidina-1(1,4)-piperazina-2(4,3)-pyridinacyclododecaphan-10-en-4-one]	–
–	–	–	CC1(O)CC=CCN2CCN(CC2)c2cc(F)ncc2NC(=O)c2ccnc(n2)NC1 (stereo not shown)	ring closure, yield after HPLC [2]: 37%
–	–	–	CC1(C)CC=CCN2CCN(CC2)c2cc(F)ncc2NC(=O)c2ccnc(n2)NC1	ring closure, isolated yield ([1]; from C=CCN1CCN(c2cc(F)ncc2NC(=O)c2ccnc(NCC(C)(C)CC=C)n2)CC1, 18-membered ring, Zhan 1B, 1.5 h, 2 steps): 34%
12.5	20.2	6.20	O=C1Nc2cnc(F)cc2N2CCOC(/C=C/CCCNc3nccc1n3)C2 (stereo not shown) [Example 14, (E)-2^6-Fluoro-3,6-diaza-1(4,2)-morpholina-5(4,2)-pyrimidina-2(4,3)-pyridinacycloundecaphan-10-en-4-one]	–
2.7	4.7	6.58	CC1(O)CC=CCCOc2ccncc2NC(=O)c2ccnc(n2)NC1 (mixture of isomers) [Example 41, (E)-11-Hydroxy-11-methyl-5-oxa-3,13-diaza-1(4,2)-pyrimidina-4(3,4)-pyridinacyclotridecaphan-8-en-2-one]	ring closure, isolated yield ([1]; from C=CCCOc1ccncc1NC(=O)c1ccnc(NCC(C)(O)CC=C)n1, 16-membered ring, Zhan 1B, ClCH2CH2Cl, 4.33 mM, 1.5 h): 39%
2	3.6	6.91	O=C1Nc2cnc(F)cc2N2CCN(CCCCCCNc3nccc1n3)CC2 [Example 24, 2^6-Fluoro-3,6-diaza-5(4,2)-pyrimidina-1(1,4)-piperazina-2(4,3)-pyridinacyclododecaphan-4-one]	–
